Measurements from PubChem BioAssay AID1919001 (Molecular Pharmacology Branch, DTP, NCI, 2023).
Where “and” joins values, the source holds several entries; their conditions need not be identical. Equal entries are not always repeated.

System: 699152-130-R-J1-PDC complex spheroid growth
Assay: Anticancer human tumor 699152-130-R-J1-PDC patient-derived pancreatic carcinoma cell line growth inhibition [AhR]
Settings: for viability, T/C: stronger effect = lower value
Outline: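 Spheroids combined tumor cells with HUVEC endothelial cells and human MSCs as stroma. AhR antagonists were paired with standard or investigational drugs, each dosed in half-log steps down from near clinical Cmax, or from 10 microM where Cmax was unknown.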

[1] = curve of first compound, second compound 0.1 µM
[2] = curve of first compound, second compound 0.316 µM
[3] = curve of first compound, second compound 1 µM
[4] = curve of first compound, second compound 3.16 µM
[5] = curve of first compound, second compound 10 µM
[6] = second compound 0.1 µM, first compound 0.00949 µM
[7] = second compound 0.1 µM, first compound 0.03 µM
[8] = second compound 0.1 µM, first compound 0.0949 µM
[9] = second compound 0.1 µM, first compound 0.3 µM
[10] = second compound 0.316 µM, first compound 0.00949 µM
[11] = second compound 0.316 µM, first compound 0.03 µM
[12] = second compound 0.316 µM, first compound 0.0949 µM
[13] = second compound 0.316 µM, first compound 0.3 µM
[14] = second compound 1 µM, first compound 0.00949 µM
[15] = second compound 1 µM, first compound 0.03 µM
[16] = second compound 1 µM, first compound 0.0949 µM
[17] = second compound 1 µM, first compound 0.3 µM
[18] = second compound 3.16 µM, first compound 0.00949 µM
[19] = second compound 3.16 µM, first compound 0.03 µM
[20] = second compound 3.16 µM, first compound 0.0949 µM
[21] = second compound 3.16 µM, first compound 0.3 µM
[22] = second compound 10 µM, first compound 0.00949 µM
[23] = second compound 10 µM, first compound 0.03 µM
[24] = second compound 10 µM, first compound 0.0949 µM
[25] = second compound 10 µM, first compound 0.3 µM
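Also: compound exposure lasted 7 days after spheroids had grown for 3 days.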

CCN(c1cc(-c2ccc(CN3CCOCC3)cc2)cc(C(=O)NCc2c(C)cc(C)[nH]c2=O)c1C)C1CCOCC1 + Cc1ccccc1N=Nc1ccc(NC(=O)c2ccnn2C)c(C)c1
IC50 [1]: > 3000 nM
IC50 [2]: > 3000 nM
IC50 [3]: > 3000 nM
IC50 [4]: > 3000 nM
IC50 [5]: > 3000 nM
viability, T/C [6]: 111%
viability, T/C [7]: 113%
viability, T/C [8]: 108%
viability, T/C [9]: 104%
viability, T/C (second compound 0.1 µM, first compound 0.949 µM): 109%
viability, T/C (second compound 0.1 µM, first compound 3 µM): 104%
viability, T/C [10]: 91.2%
viability, T/C [11]: 95.6%
viability, T/C [12]: 102%
viability, T/C [13]: 105%
viability, T/C (second compound 0.316 µM, first compound 0.949 µM): 109%
viability, T/C (second compound 0.316 µM, first compound 3 µM): 114%
viability, T/C [14]: 118%
viability, T/C [15]: 105%
viability, T/C [16]: 109%
viability, T/C [17]: 109%
viability, T/C (second compound 1 µM, first compound 0.949 µM): 90.8%
viability, T/C (second compound 1 µM, first compound 3 µM): 118%
viability, T/C [18]: 97.1%
viability, T/C [19]: 104%
viability, T/C [20]: 108%
viability, T/C [21]: 98.7%
viability, T/C (second compound 3.16 µM, first compound 0.949 µM): 99.7%
viability, T/C (second compound 3.16 µM, first compound 3 µM): 101%
viability, T/C [22]: 113%
viability, T/C [23]: 113%
viability, T/C [24]: 118%
viability, T/C [25]: 124%
viability, T/C (second compound 10 µM, first compound 0.949 µM): 127%
viability, T/C (second compound 10 µM, first compound 3 µM): 113%

CCN(c1cc(-c2ccc(CN3CCOCC3)cc2)cc(C(=O)NCc2c(C)cc(C)[nH]c2=O)c1C)C1CCOCC1
viability, T/C (compound 0.00949 µM): 101% and 104% and 103%
viability, T/C (compound 0.03 µM): 95.7% and 110% and 98.5%
viability, T/C (compound 0.0949 µM): 111% and 87.2% and 115%
viability, T/C (compound 0.3 µM): 93.7% and 115% and 95%
viability, T/C (compound 0.949 µM): 107% and 114% and 113%
viability, T/C (compound 3 µM): 105% and 111% and 113%
IC50 (curve of compound): > 3000 nM

Nc1ncn(C2CC(O)C(CO)S2)c(=O)n1 (configuration not stated) + CC(CO)NC(=O)c1cc(-c2ccc(Cl)cc2)nn(-c2cnn(C)c2)c1=O
IC50 [1]: > 300 nM
IC50 [2]: > 300 nM
IC50 [3]: > 300 nM
IC50 [4]: > 300 nM
IC50 [5]: > 300 nM
viability, T/C (second compound 0.1 µM, first compound 0.000949 µM): 98%
viability, T/C (second compound 0.1 µM, first compound 0.003 µM): 104%
viability, T/C [6]: 85.7%
viability, T/C [7]: 103%
viability, T/C [8]: 97.8%
viability, T/C [9]: 94.2%
viability, T/C (second compound 0.316 µM, first compound 0.000949 µM): 89.6%
viability, T/C (second compound 0.316 µM, first compound 0.003 µM): 111%
viability, T/C [10]: 105%
viability, T/C [11]: 93.1%
viability, T/C [12]: 93.8%
viability, T/C [13]: 87.1%
viability, T/C (second compound 1 µM, first compound 0.000949 µM): 93.8%
viability, T/C (second compound 1 µM, first compound 0.003 µM): 101%
viability, T/C [14]: 89.1%
viability, T/C [15]: 95.3%
viability, T/C [16]: 94.1%
viability, T/C [17]: 86.1%
viability, T/C (second compound 3.16 µM, first compound 0.000949 µM): 86.3%
viability, T/C (second compound 3.16 µM, first compound 0.003 µM): 88%
viability, T/C [18]: 91.8%
viability, T/C [19]: 88.9%
viability, T/C [20]: 90.1%
viability, T/C [21]: 85%
viability, T/C (second compound 10 µM, first compound 0.000949 µM): 80.7%
viability, T/C (second compound 10 µM, first compound 0.003 µM): 91.8%
viability, T/C [22]: 84.6%
viability, T/C [23]: 87.2%
viability, T/C [24]: 87%
viability, T/C [25]: 86%

COc1cccc2c1C(=O)c1c(O)c3c(c(O)c1C2=O)CC(O)(C(=O)CO)CC3OC1CC(N)C(O)C(C)O1 (configuration not stated) + Cc1ccccc1N=Nc1ccc(NC(=O)c2ccnn2C)c(C)c1
IC50 [1]: 214 nM
IC50 [2]: 285 nM
IC50 [3]: 228 nM
IC50 [4]: 154 nM
IC50 [5]: 213 nM
viability, T/C (second compound 0.1 µM, first compound 0.0316 µM): 65.5%
viability, T/C (second compound 0.1 µM, first compound 0.1 µM): 59.3%
viability, T/C (second compound 0.1 µM, first compound 0.316 µM): 44%
viability, T/C (second compound 0.1 µM, first compound 1 µM): 25.2%
viability, T/C (second compound 0.1 µM, first compound 3.16 µM): 4.33%
viability, T/C (second compound 0.1 µM, first compound 10 µM): 8.93%
viability, T/C (second compound 0.316 µM, first compound 0.0316 µM): 58.8%
viability, T/C (second compound 0.316 µM, first compound 0.1 µM): 58.8%
viability, T/C (second compound 0.316 µM, first compound 0.316 µM): 45.8%
viability, T/C (second compound 0.316 µM, first compound 1 µM): 30.2%
viability, T/C (second compound 0.316 µM, first compound 3.16 µM): 2.54%
viability, T/C (second compound 0.316 µM, first compound 10 µM): 9.1%
viability, T/C (second compound 1 µM, first compound 0.0316 µM): 65.5%
viability, T/C (second compound 1 µM, first compound 0.1 µM): 62.9%
viability, T/C (second compound 1 µM, first compound 0.316 µM): 43%
viability, T/C (second compound 1 µM, first compound 1 µM): 26.5%
viability, T/C (second compound 1 µM, first compound 3.16 µM): 4.29%
viability, T/C (second compound 1 µM, first compound 10 µM): 6.64%
viability, T/C (second compound 3.16 µM, first compound 0.0316 µM): 62.1%
viability, T/C (second compound 3.16 µM, first compound 0.1 µM): 53.2%
viability, T/C (second compound 3.16 µM, first compound 0.316 µM): 40.9%
viability, T/C (second compound 3.16 µM, first compound 1 µM): 26.1%
viability, T/C (second compound 3.16 µM, first compound 3.16 µM): 2.91%
viability, T/C (second compound 3.16 µM, first compound 10 µM): 8.18%
viability, T/C (second compound 10 µM, first compound 0.0316 µM): 74.4%
viability, T/C (second compound 10 µM, first compound 0.1 µM): 63.1%
viability, T/C (second compound 10 µM, first compound 0.316 µM): 42.6%
viability, T/C (second compound 10 µM, first compound 1 µM): 22.7%
viability, T/C (second compound 10 µM, first compound 3.16 µM): 4.35%
viability, T/C (second compound 10 µM, first compound 10 µM): 10.2%
